Among the data in ChEMBL document CHEMBL1157481, “Microwave-assisted synthesis of 5-aminopyrazol-4-yl ketones and the p38(MAPK) inhibitor RO3201195 for study in Werner syndrome cells” (Bioorg Med Chem Lett, 2008) are Activity values, retold here.

Calls of active or inactive are those of the source. The rule behind the calls is not given here.

The assay addresses Mitogen-activated protein kinase 9 (Homo sapiens) (UniProt P45984). Description: Inhibition of JNK2 in hTERT-immortalized human HCA2 cells assessed as c-jun phosphorylation upto 50 uM by ELISA in presence of anisomycin. Type of assay: cell-based.

Chain of Mitogen-activated protein kinase 9 (Homo sapiens) (P45984 whole entry, looked up): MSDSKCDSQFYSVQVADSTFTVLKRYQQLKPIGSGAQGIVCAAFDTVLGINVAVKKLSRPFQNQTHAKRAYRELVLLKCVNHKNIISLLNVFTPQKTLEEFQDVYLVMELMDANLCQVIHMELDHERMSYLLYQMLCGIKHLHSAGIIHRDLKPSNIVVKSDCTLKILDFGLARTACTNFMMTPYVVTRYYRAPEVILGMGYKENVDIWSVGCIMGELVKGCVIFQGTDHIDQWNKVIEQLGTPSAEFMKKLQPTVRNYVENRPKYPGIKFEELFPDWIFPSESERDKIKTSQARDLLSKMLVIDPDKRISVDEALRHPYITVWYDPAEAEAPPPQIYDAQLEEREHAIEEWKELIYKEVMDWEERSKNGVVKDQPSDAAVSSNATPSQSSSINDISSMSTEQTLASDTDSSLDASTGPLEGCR

As to `Nc1c(C(=O)c2cccc(OC[C@@H](O)CO)c2)cnn1-c1ccc(F)cc1`, the outcome was inactive.
